Source: patent US7078499B2, “Nucleotide analogues comprising a reporter moiety and a polymerase enzyme blocking moiety” (GE Healthcare UK Limited, priority 2000, dated 2006)

Experiments:
[1] = target: T1, Pfu DNA polymerase (Pyrococcus furiosus, UniProt P61875); assay: Thermostable DNA polymerase primer extension, Pfu; assay type: biochemical; design: key: −: No extension within assay time; +/−: up to 25% of primer extended by at least one base within assay time; +: up to 50% of primer extended by at least one base within assay time; ++: up to 75% of primer extended by at least one base within assay time; +++: essentially all primer extended by at least one base within assay time; details: DNA template, TTP replaced entirely by test compound, 45° C. for 20–40 minutes
T1 construct: purchased Stratagene Ltd
T1 sequence (P61875 1-775): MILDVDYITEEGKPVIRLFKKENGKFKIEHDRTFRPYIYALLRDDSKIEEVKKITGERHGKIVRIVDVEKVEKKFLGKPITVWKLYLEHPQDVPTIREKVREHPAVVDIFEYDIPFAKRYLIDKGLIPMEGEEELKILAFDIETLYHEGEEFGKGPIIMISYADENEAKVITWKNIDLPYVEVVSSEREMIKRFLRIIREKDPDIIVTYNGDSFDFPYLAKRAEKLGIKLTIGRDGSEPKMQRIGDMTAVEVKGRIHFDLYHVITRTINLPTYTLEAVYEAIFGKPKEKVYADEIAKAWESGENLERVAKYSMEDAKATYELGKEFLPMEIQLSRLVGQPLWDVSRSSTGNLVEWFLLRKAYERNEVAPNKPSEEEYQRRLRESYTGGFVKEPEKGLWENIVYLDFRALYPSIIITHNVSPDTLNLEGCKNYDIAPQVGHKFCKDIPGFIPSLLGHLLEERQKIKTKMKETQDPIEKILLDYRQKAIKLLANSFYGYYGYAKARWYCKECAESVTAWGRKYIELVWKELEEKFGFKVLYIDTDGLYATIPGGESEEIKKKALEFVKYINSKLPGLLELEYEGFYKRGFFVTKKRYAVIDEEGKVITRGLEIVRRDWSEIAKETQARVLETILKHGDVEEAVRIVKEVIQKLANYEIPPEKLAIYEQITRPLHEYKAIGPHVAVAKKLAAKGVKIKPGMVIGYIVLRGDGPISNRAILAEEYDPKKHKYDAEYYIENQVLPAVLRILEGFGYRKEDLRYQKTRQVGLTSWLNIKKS
Experimental: (§1) DNA polymerase assays were performed using Sequence 1 as primer and Sequence 2 as template. • Sequence 1 5′[Cy3]TAACTCATTAACAGGATC 3′ • Sequence 2 5′AT TCGCGGTATTCTGGTATGAAGCTTTTAGATCCTGTTAATGAGTTA GTA3′
(§2) The template (Sequence 2) was designed such that the base (underlined) immediately adjacent to the 3′ end of the hybridised primer is complementary to the nucleotide test compound. Nucleotide test compounds were compounds (6) (4′-C-(glycylaminomethyl)thymidine triphosphate), (8) (4′-C-(N-trifluoroacetyaminomethyl)thymidine triphosphate) and (9) (4′-C-(aminomethyl)thymidine triphosphate) as described above.
(§3) Primer extension reactions were performed using the above primers in the presence of 40 to 80 μM of nucleotide triphosphates. Positive control reactions contained all four native nucleotide triphosphates. For the other reactions the TTP was replaced with either a 2:1 ratio of […] for the terminator control, or entirely by the test compound The enzymes were used at a final concentration of 0.175 units/μl and a magnesium ion concentration of 2.5 mM in buffers supplied by the manufacturer. The primer and template concentrations were 0.5 pmol/μl and 2 pmol/μl respectively.
Extension reactions with thermophilic enzymes were performed by initially denaturing the fully assembled reactions at 70° C. for 5 min. followed by 45° C. for 20–40 minutes. The following enzymes were used: Taq DNA polymerase (Taq); Thermosequenase (TS); Thermosequenase II (TSII); Thermosequenase E (TSE), Tfl DNA polymerase (Tfl); Tth DNA polymerase (Tth), deltaTts DNA polymerase (deltaTts), deltaTts D DNA polymerase (dettaTTSD) (all from APBiotech); Pfu DNA polymerase (Pfu) (Stratagene Ltd); Vent™ DNA polymerase (Vent) (New England Biolabs).
The reactions were stopped by adding a 0.5 volume aliquot of 80% formamide containing 0.1% (w/v) bromophenol blue and 0.1% (w/v) cresol blue. […]
Gels were scanned for Cy3 fluorescence on a Molecular Dynamics Fluorimager and the data analysed using Molecular Dynamics ImageQuant 5 software. […]

[2] = target: T2, HIV RT (Human immunodeficiency virus type 1 group M subtype B, UniProt P03366); assay: Mesophilic reverse transcriptase reaction, HIV RT; assay type: biochemical; design: key to result of incorporation (termination / further chain extension): T: Incorporation results in termination; E: Incorporation permits further chain extension; T/E: Predominant product is primer extended by one base, but evidence of some further extension also observed; key to primer extended by at least one base within assay time (grade): −: No extension within assay time; +/−: up to 25% of primer extended by at least one base within assay time; +: up to 50% of primer extended by at least one base within assay time; ++: up to 75% of primer extended by at least one base within assay time; +++: essentially all primer extended by at least one base within assay time; details: RNA template, final enzyme concentration of 4 units/μl
T2 construct: AMV RT; MuLV RT; SAV RT and HIV RT all from APBiotech; purchased APBiotech
Experimental: as §1, §2, §3
Extension reactions preformed with mesophilic polymerases were carried out by mixing all the components of the reaction except the enzyme and heating to 70° C. for 5 min. After the reactions had cooled to room temperature 0.175 units of the enzyme were added and the reactions heated to 37° C. for 20–40 minutes. The following enzymes were used: T7 DNA polymerase (T7); Sequenase 2™ (Seq); Klenow fragment of DNA polymerase 1 (Klen); phi-29 DNA polymerase (Phi-29); T4 DNA polymerase (T4) (all from AP Biotech) and Bst DNA polymerase (Bst) (Cambio Ltd).
Reverse transcriptase reactions were performed essentially as described above for thermophilic and mesophilic enzymes. The template for these reactions was the RNA equivalent of sequence 2. All the thermophilic enzymes were assayed in Tth reaction buffer (Cambio Ltd, Cambridge UK) containing 2.5 mM Manganese ions. The following enzymes were used: Thermosequenase (TS1); Thermosequenase II (TSII); delta Tts DNA polymerase (deltaTts); delta Tts D DNA polymerase (deltaTtsD) (all from APBiotech); Retrotherm reverse transcriptase (Retroth) (Cambio Ltd); Tth DNA polymerase (Tth) (Cambio Ltd.).
Mesophilic reverse transcriptases (AMV RT; MuLV RT; SAV RT and HIV RT all from APBiotech) were assayed in their respective buffers with a final enzyme concentration of 4 units/μl.
The reactions were stopped by adding a 0.5 volume aliquot of 80% formamide containing 0.1% (w/v) bromophenol blue and 0.1% (w/v) cresol blue. The reaction products were separated by denaturing gel electrophoresis at a constant power of 45 W on 16% polyacrylamide gels containing 50% urea.
Gels were scanned for Cy3 fluorescence on a Molecular Dynamics Fluorimager and the data analysed using Molecular Dynamics ImageQuant 5 software.
The incorporation of a test nucleotide triphosphate results in the appearance on a polyacrylamide gel of a single band corresponding to a single base extension product. If, however, the enzyme adds additional bases then further bands would be observed that corresponded to either the full-length product or positions of other complementary bases in the template.

Molecule | primer extended by at least one base within assay time (grade) [1] | primer extended by at least one base within assay time (grade) [2] | result of incorporation (termination / further chain extension) [2]
Cc1cn([C@H]2C[C@H](O)[C@@](CNC(=O)C(F)(F)F)(COP(=O)(O)OP(=O)(O)OP(=O)(O)O)O2)c(=O)[nH]c1=O [compound (8), 4′-C-(N-trifluoroacetylaminomethyl)thymidine triphosphate] | − | +++ | E
4′-C-(Aminomethyl)thymidine triphosphate [compound (9)] | − | +++ | E
4′-C-(Glycylaminomethyl)thymidine triphosphate [compound (6)] | − | +++ | E
